Values joined by “and” are separate entries in the source; they are usually repeats but may differ in a detail not shown here. Equal entries are not always repeated.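 Where inhibition never reached the appropriate level, the endpoint shown equals the highest concentration tested. Otherwise, values were interpolated linearly from a five-concentration, 48-hour dose response in 96-well plates. GI50 marks 50% less growth. At the TGI there is no net growth.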
Tests used:
Assay in all cases: DTP human tumour cell line panel, 48 h
BT-549 breast = tested on: BT-549 breast
CAKI-1 renal = tested on: CAKI-1 renal
LOX IMVI melanoma = tested on: LOX IMVI melanoma
M14 melanoma = tested on: M14 melanoma
MDA-MB-231 breast = tested on: MDA-MB-231 breast
MDA-MB-435 = tested on: MDA-MB-435
MOLT-4 leukemia = tested on: MOLT-4 leukemia
SF-295 CNS = tested on: SF-295 CNS
SW-620 colon = tested on: SW-620 colon
UO-31 renal = tested on: UO-31 renal

SMILES	GI50 (BT-549 breast)	TGI (BT-549 breast)	GI50 (CAKI-1 renal)	TGI (CAKI-1 renal)	GI50 (LOX IMVI melanoma)	TGI (LOX IMVI melanoma)	GI50 (M14 melanoma)	TGI (M14 melanoma)	GI50 (MDA-MB-231 breast)	TGI (MDA-MB-231 breast)	GI50 (MDA-MB-435)	TGI (MDA-MB-435)	GI50 (MOLT-4 leukemia)	TGI (MOLT-4 leukemia)	GI50 (SF-295 CNS)	TGI (SF-295 CNS)	GI50 (SW-620 colon)	TGI (SW-620 colon)	GI50 (UO-31 renal)	TGI (UO-31 renal)
NC(=O)[C@H]1CCN(c2ncnc(N)c2F)C[C@@H]1N1CCC[C@@H](Nc2cc(Cl)cc(C(F)(F)F)c2)C1=O	21400 nM	51100 nM	6670 nM	89700 nM	11200 nM	27100 nM	12800 nM	36800 nM	14300 nM	32600 nM	14300 nM	39500 nM	4930 nM	65900 nM	17100 nM	41800 nM	25600 nM	> 100000 nM	9160 nM	> 100000 nM
COc1cc(Cn2cc3c(c2)-c2oncc2CC3)cc(OC)c1OC	111 nM	> 100000 nM	33.7 nM	> 42100 nM	71.6 nM	> 100000 nM	27.4 nM	38900 nM	60.1 nM	> 100000 nM	< 10.7 nM	< 22.5 nM	33.8 nM	13100 nM	18.5 nM	59 nM	32.7 nM	> 100000 nM	59.4 nM	15100 nM
Cn1c(=O)c2[nH]c(/N=N/N3CCN(CCO)CC3)nc2n(C)c1=O	–	> 100000 nM	–	> 100000 nM	–	> 100000 nM	–	> 100000 nM	–	> 100000 nM	–	> 100000 nM	–	> 100000 nM	–	> 100000 nM	–	> 100000 nM	–	> 100000 nM
O=C(Nc1cccc(Cl)c1)Nc1ncc(CCNc2ncnc3ccsc23)s1	2070 nM and 1680 nM	11800 nM and 7750 nM	1120 nM and 1340 nM	22800 nM and > 10000 nM	1380 nM and 1200 nM	> 43900 nM	2300 nM and 1910 nM	11600 nM and > 10000 nM	3380 nM and 2670 nM	17400 nM and > 10000 nM	1990 nM and 1890 nM	14200 nM and > 10000 nM	2850 nM and 1730 nM	> 27800 nM and 4990 nM	215 nM and 593 nM	16900 nM and > 10000 nM	14500 nM and > 10000 nM	65300 nM and > 10000 nM	6010 nM and 3220 nM	28700 nM and > 10000 nM
CC1=C(C(=O)OCc2ccccc2)C(c2ccc3c(c2)OCO3)n2c(nc3ccccc32)N1 (stereo not drawn)	–	> 100000 nM	275 nM	> 100000 nM	566 nM	> 100000 nM	418 nM	> 100000 nM	> 92600 nM	> 100000 nM	84.2 nM	351 nM	753 nM	> 100000 nM	321 nM	> 100000 nM	346 nM	> 100000 nM	544 nM	> 79500 nM
CC1(C)CCC2(C(=O)OC3OC(CO)C(O)C(O)C3O)CC[C@]3(C)C(=CCC4C5(C)CC[C@H](OC6OC(C(=O)O)C(O)C(O)C6O)C(C)(C)C5CCC43C)C2C1 (stereo partly drawn)	1700 nM	25800 nM	17200 nM	> 50000 nM	807 nM	1490 nM	1470 nM	4330 nM	1150 nM	2760 nM	2520 nM	> 50000 nM	997 nM	2840 nM	2560 nM	> 50000 nM	1930 nM	8870 nM	12700 nM	31800 nM
CC[C@H](Nc1nc(N)nc(C)c1C#N)c1nc2cccc(CN(C)c3ncc(C(=O)NO)cn3)c2c(=O)n1-c1ccccc1	2260 nM	12500 nM	2610 nM	6560 nM	693 nM	1350 nM	1080 nM	7010 nM	779 nM	3080 nM	617 nM	2260 nM	204 nM	> 50000 nM	1280 nM	3810 nM	392 nM	3430 nM	1000 nM	3050 nM
CC[C@](C)(O)C(=O)O[C@H]1C(=O)O[C@@H]2C[C@H]3C(C)=CC(=O)[C@@H](O)[C@]3(C)[C@H]3[C@@]4(O)OC[C@]32[C@@H]1[C@@H](C)[C@H]4O	–	6760 nM	577 nM and 158 nM	8800 nM and 1350 nM	56.3 nM	278 nM and 545 nM	–	396 nM	–	4340 nM	–	> 24300 nM	36.6 nM	–	296 nM	2600 nM and 351 nM	216 nM	–	662 nM	3710 nM and 3780 nM
CC12CCC=CC1CCC1C2CCC2(C)C(c3ccc(=O)oc3)CCC12O (stereo not drawn)	39.1 nM	436 nM	94.2 nM	548 nM	33 nM	141 nM	154 nM	519 nM	365 nM	2570 nM	108 nM	528 nM	28.2 nM	96.7 nM	44 nM	248 nM	55.8 nM	330 nM	64.7 nM	189 nM

Reference: PubChem BioAssay (NCI)
